Data: patent publication US6204293A, “Inhibitors of protein isoprenyl transferases” (University of Pittsburgh, priority 1998, dated 2001)
Where a name gives a salt, the structure may show the parent alone.

Each compound was assayed against T1, Rat brain protein farnesyltransferase (Rattus norvegicus, UniProt Q02293+Q04631) (assay: % inhibition of farnesylation, scintillation proximity assay with biotin-K Ras B fragment). Settings: Table 1; 1 × 10^-5 M.
T1 construct: Rat brain protein farnesyltransferase activity is measured; from tissue; host or cells: rat brain
Format: biochemical
How it was run: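 Scintillation proximity read-out of farnesylation, using a biotinylated K Ras B fragment (0.1 mM final) in place of biotin-lamin. Enzyme purified from rat brain; results given as % inhibition.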

T1 sequence (Q02293 whole entry, the tested form may be a part, one chain of several): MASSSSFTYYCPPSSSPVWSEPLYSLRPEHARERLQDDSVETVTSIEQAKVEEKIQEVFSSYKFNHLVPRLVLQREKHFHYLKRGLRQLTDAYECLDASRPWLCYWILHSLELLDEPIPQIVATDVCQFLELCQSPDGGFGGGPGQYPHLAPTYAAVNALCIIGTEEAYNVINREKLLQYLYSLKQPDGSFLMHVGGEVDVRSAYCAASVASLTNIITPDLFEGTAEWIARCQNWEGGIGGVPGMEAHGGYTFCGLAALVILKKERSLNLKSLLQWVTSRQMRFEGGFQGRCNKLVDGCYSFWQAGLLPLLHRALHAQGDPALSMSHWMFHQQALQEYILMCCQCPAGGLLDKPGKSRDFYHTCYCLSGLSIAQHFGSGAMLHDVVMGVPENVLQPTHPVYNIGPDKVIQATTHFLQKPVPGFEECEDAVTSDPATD

Row | SMILES | % inhibition at 1 × 10^-5 M [%]
1 | CSCC[C@H](NC(=O)c1ccc(CNc2ccc3ncccc3c2)cc1-c1ccccc1)C(=O)O [Example 708] | 76

Same assay, conditions: Table 2; 1 × 10^-6 M

Row | SMILES | % inhibition at 1 × 10^-6 M [%]
2 | COc1cccc(CNCc2ccc(C(=O)N[C@@H](CCSC)C(=O)O)c(-c3ccccc3)c2)c1 [Example 652] | 41
3 | CCOC(=O)c1ccc(NCc2ccc(C(=O)N[C@@H](CCSC)C(=O)O)c(-c3ccccc3)c2)cc1 [Example 646] | 58
4 | CSCCC(NC(=O)c1ccc(NC(=O)C2CCCNC2)cc1-c1ccccc1)C(=O)O (stereo not drawn) [Example 231] | 50
5 | CCc1nnc(NCc2ccc(C(=O)N[C@@H](CCSC)C(=O)O)c(-c3ccccc3C)c2)s1 [Example 723] | 87
6 | CSCC[C@H](NC(=O)c1ccc(CNc2ccc(-c3nc4ccccc4s3)cc2)cc1-c1ccccc1)C(=O)O [Example 703] | 40
7 | CSCC[C@H](NC(=O)c1ccc(-c2ccccc2-c2ccccc2)cc1-c1ccccc1C)C(=O)[O-].[Li+] [Example 786] | 34
8 | CSCC[C@H](NC(=O)c1ccc(CN(Cc2ccoc2)C(C)C)cc1-c1ccccc1C)C(=O)O [Example 832] | 80
9 | CSCC[C@H](NC(=O)c1ccc(NCC2CNCCN2)cc1-c1ccccc1)C(=O)O (stereo partly drawn) [Example 286] | 84
10 | CSCC[C@H](NC(=O)c1ccc(CN(CCC#N)Cc2ccccc2)cc1-c1ccccc1)C(=O)O [Example 649] | 86
11 | CSCC[C@H](NC(=O)c1ccc(CN(Cc2ccccc2)c2ccccc2SC)cc1-c1ccccc1C)C(=O)[O-].[Li+] [Example 850] | 90
12 | CSCCC(NC(=O)c1ccc(CNC(CO)c2ccccc2)cc1-c1ccccc1)C(=O)O (stereo not drawn) [Example 658] | 73

The remaining lines, values ahead:

Row | % inhibition at 1 × 10^-6 M [%] | SMILES
13 | 96 | CSCC[C@H](NC(=O)c1ccc(CN(CCc2ccccc2)c2ccccc2)cc1-c1ccccc1C)C(=O)O [Example 507]
14 | 98 | CSCC[C@H](NC(=O)c1ccc(CN(C)C(C)(C)Cc2ccccc2)cc1-c1ccccc1C)C(=O)O [Example 309]
15 | 54 | CSCC[C@H](NC(=O)c1ccc(CN(C(C)C)C(C)(C)Cc2ccccc2)cc1-c1ccccc1C)C(=O)O [Example 317]
16 | 95 | CSCC[C@H](NC(=O)c1ccc(CN(CCCc2ccccc2)c2ccccc2)cc1-c1ccccc1C)C(=O)O [Example 508]

Same assay, conditions: Table 3; 1 × 10^-7 M

Row | SMILES | % inhibition at 1 × 10^-7 M [%]
17 | CSCC[C@H](NC(=O)c1ccc(NC[C@@H]2C[C@H](S)CN2)cc1-c1ccccc1)C(=O)O [Example 959] | > 50
18 | CSCC[C@H](NC(=O)c1ccc(CNC(CC2CCCCC2)C2CCCCC2)cc1-c1ccccc1C)C(=O)[O-].[Li+] (stereo partly drawn) [Example 616] | 95
19 | CSCC[C@H](NC(=O)c1ccc(/C=C/c2ccc(Oc3ccccc3[N+](=O)[O-])cc2)cc1-c1ccccc1C)C(=O)O [Example 856] | 97

Same assay, conditions: Table 4; 1 × 10^-8 M

Row | SMILES | % inhibition at 1 × 10^-8 M [%]
20 | CSCC[C@H](NC(=O)c1ccc(CN(Cc2ccc3c(c2)OCO3)c2cncnc2)cc1-c1ccccc1C)C(=O)O [Example 837] | 91
21 | CSCC[C@H](NC(=O)c1ccc(CN(Cc2cncs2)C2CCSCC2)cc1-c1ccccc1C)C(=O)O [Example 881] | 69
22 | CSCC[C@H](NC(=O)c1ccc(CN(C)C(CC2CCCCC2)CC2CCCCC2)cc1-c1ccccc1C)C(=O)O [Example 907] | 79

Continued, values first:

Row | % inhibition at 1 × 10^-8 M [%] | SMILES
23 | 85 | CSCC[C@H](NC(=O)c1ccc(CN(Cc2ccccc2)c2cccc(Cl)c2)cc1-c1ccccc1C)C(=O)O [Example 847]
24 | 68 | CSCC[C@H](NC(=O)c1ccc(CN(Cc2cncs2)S(=O)(=O)c2ccc(C)cc2)cc1-c1ccccc1C)C(=O)O [Example 877]
25 | 85 | CSCC[C@H](NC(=O)c1ccc(CN(Cc2ccccc2)c2ccc(C(F)(F)F)cc2)cc1-c1ccccc1C)C(=O)O [Example 853]

Same assay, conditions: read-out: % inhibition at 0.01 μM (**)

Row | SMILES | inhibition at 0.01 µM [%]
26 | CSCC[C@H](NC(=O)c1ccc(CO[C@H](COC(C)C)CC2CCCCC2)cc1-c1ccccc1C)C(=O)O [Example 1306, N-[4-[(S)-3-Cyclohexyl-1-(1-methylethoxy)prop-2-yloxymethyl]-2-(2-methylphenyl)benzoyl]methionine Lithium Salt] | 85

Same assay, conditions: read-out: % inhibition at 0.01 μM (**); Table 6; ** footnote 0.01 μM (title: 0.01 mM)

Row | SMILES | inhibition at 0.01 µM [%]
27 | CSCC[C@H](NC(=O)c1ccc(COCc2cc(F)cc(F)c2)cc1-c1ccccc1C)C(=O)O [Example 1226, N-[4-(3,5-trifluorobenzyloxymethyl)-2-(2-methylphenyl)benzoyl]methionine lithium salt] | 69
28 | CCS(=O)(=O)C[C@H](CC1CCCCC1)OCc1ccc(C(=O)N[C@@H](CCSC)C(=O)O)c(-c2ccccc2C)c1 [Example 1311, N-[4-(3-Cyclohexyl-1-ethylsulfonylprop-2-yloxymethyl)-2-(2-methylphenyl)benzoyl]methionine Lithium Salt] | 95

Same assay, conditions: read-out: % inhibition at 0.1 μM (*); Table 6; * footnote 0.1 μM (title: 0.1 mM)

Row | SMILES | inhibition at 0.1 µM [%]
29 | CSCC[C@H](NC(=O)c1ccc(COC(CC2CCCCC2)c2sc(C)nc2C)cc1-c1ccccc1C)C(=O)O (stereo partly drawn) [Example 1096, N-[4-(1-(2,4-dimethylthiazol-5-yl)-2-cyclohexylethoxy)methyl)-2-(2-methylphenyl)benzoyl]methionine lithium salt] | 86
30 | CSCC[C@H](NC(=O)c1ccc(CO[C@H](COCCC(C)(C)C)CC2CCCCC2)cc1-c1ccccc1C)C(=O)O [Example 1309, N-[4-(3-Cyclohexyl-1-(3,3-dimethylbut-1-yloxy)prop-2-yloxymethyl)-2-(2-methylphenyl)benzoyl]methionine Lithium Salt] | 96

Now from value to compound:

Row | inhibition at 0.1 µM [%] | SMILES
31 | 74 | CSCC[C@H](NC(=O)c1ccc(COC(c2ccccc2)C2CCOCC2)cc1-c1ccccc1C)C(=O)O (stereo partly drawn) [Example 1283, N-[4-(1-(4-tetrahydropyranyl)benzyloxymethyl-2-(2-methylphenyl)benzoyl]methioninelithium salt]
32 | 89 | CSCC[C@H](NC(=O)c1ccc(COCCc2cccc(F)c2)cc1-c1ccccc1C)C(=O)O [Example 1274, N-[4-(2-(3-fluorophenyl)ethyloxymethyl-2-(2-methylphenyl)benzoyl]methioninelithium salt]

Same assay, conditions: read-out: % inhibition at 1 × 10^-6 M

Row | SMILES | inhibition at 1 µM [%]
33 | CSCC[C@H](NC(=O)c1ccc(COCc2ccc(-c3ccccc3)o2)cc1-c1ccccc1C)C(=O)O [Example 327, [4-(5-phenylfur-2-ylmethyloxymethyl)-2-(2-methylphenyl)benzoyl]methionine lithium salt] | 97
34 | CSCC[C@H](NC(=O)c1ccc(COC2(c3ccccc3)CCN(C(=O)OC(C)(C)C)CC2)cc1-c1ccccc1C)C(=O)O [Example 816, N-[4-(1-t-butoxycarbonyl-4-phenylpiperidin-4-yloxymethyl)-2-(2-methylphenyl)benzoyl]methionine lithium salt] | 87

Same assay, conditions: read-out: % inhibition at 1 × 10^-6 M; Table 2; 1 × 10^-6 M

Row | SMILES | inhibition at 1 µM [%]
35 | CSCC[C@H](NC(=O)c1ccc(Sc2ccc3ccccc3c2)cc1-c1ccccc1C)C(=O)O [Example 497, N-[4-(naphth-2-ylthio)-2-(2-methylphenyl)benzoyl]methionine] | 94
36 | CSCC[C@H](NC(=O)c1ccc(COCc2ccccc2)cc1-c1ccccc1)C(=O)O [Example 575, N-[4-(benzyloxymethyl)-2-phenylbenzoyl]methionine] | 70
37 | CSCC[C@H](NC(=O)c1ccc(COC2CCN(Cc3ccccc3)CC2)cc1-c1ccccc1C)C(=O)O [Example 807, N-[4-(1-benzylpiperidin-4-yloxymethyl)-2-(2-methylphenyl)benzoyl]methioninelithium salt] | 90

Same assay, conditions: read-out: % inhibition at 1 × 10^-7 M

Row | SMILES | inhibition at 0.1 µM [%]
38 | CSCC[C@H](NC(=O)c1ccc(COCc2ccc(Br)o2)cc1-c1ccccc1C)C(=O)O [Example 434, N-[4-(5-Bromofuran-2-ylmethoxymethyl)-2-(2-methylphenyl)benzoyl]methionine lithium salt] | 93
39 | CSCC[C@H](NC(=O)c1ccc(COCc2cccc(C)c2)cc1-c1ccccc1C)C(=O)O [Example 578, N-[4-(3-methylbenzyloxymethyl)-2-(2-methylphenyl)benzoyl]methionine lithium salt] | 90

Same assay, conditions: read-out: % inhibition at 1 × 10^-7 M; Table 3; 1 × 10^-7 M

Row | SMILES | inhibition at 0.1 µM [%]
40 | CSCC[C@H](NC(=O)c1ccc(CSc2ccc(C)cc2C)cc1-c1ccccc1C)C(=O)O [Example 741] | 89
41 | CSCC[C@H](NC(=O)c1ccc(COCc2cnc(-c3ccc(F)cc3)s2)cc1-c1ccccc1C)C(=O)O [Example 900, N-[4-(2-(4-fluorophenylthiazol-5-ylmethoxymethyl)-2-(2-methylphenyl)benzoyl]methioninelithium salt] | 95
42 | CSCC[C@H](NC(=O)c1ccc(CSc2ccc(F)cc2)cc1-c1ccccc1C)C(=O)O [Example 740] | 94
43 | CSCC[C@H](NC(=O)c1ccc(COc2cccc3ccccc23)cc1-c1ccccc1C)C(=O)O [Example 574, N-[4-(naphth-1-yloxymethyl)-2-(2-methylphenyl)benzoyl]methionine] | 81

Same assay, conditions: read-out: % inhibition at 1 × 10^-8 M

Row | SMILES | inhibition at 0.01 µM [%]
44 | CSCC[C@H](NC(=O)c1ccc(COCc2cnc(-c3ccccc3Cl)o2)cc1-c1ccccc1C)C(=O)O [Example 892, N-[4-(2-(2-chlorophenyl)oxazol-5-ylmethoxymethyl)-2-(2-methylphenyl)benzoyl]methionine lithium salt] | 59

Same assay, conditions: read-out: % inhibition at 1 × 10^-8 M; Table 4; 1 × 10^-8 M

Row | SMILES | inhibition at 0.01 µM [%]
45 | CSCC[C@H](NC(=O)c1ccc(CO[C@H](CSc2ccccc2)CC2CCCCC2)cc1-c1ccccc1C)C(=O)O [Example 884, N-[4-(3-Cyclohexyl-1-phenylthiopropan-2-yl)oxymethyl-2-(2-methylphenyl)benzoyl]methionine lithium salt] | 94
